Measured values taken from patent publication US11384358B2, “Method of regulating gene expression in a cell” (President and Fellows of Harvard College, priority 2017, dated 2022).

What was measured:
Type in all cases: cell-based
[1] = tested on: aTc-inducible expression cassette encoding J3-VHH secretion; assay: aTc-induced secretion of HisTagged J3-VHH nanobody, protein gel of purified culture supernatant; details: L. gasseri with inducible cassette (SEQ ID NO: 2); 500 ng/mL aTc added at optical density 0.4; FIG. 17
Source text: According to one aspect, an inducible expression system is used prevent expression during bacterial culture and clone isolation. According to one aspect, expression is controlled and kept off during bacterial culture and clone isolation to avoid or lower or reduce or inhibit secretion-induced toxicity. According to one aspect, the level of a HisTagged, anti-HIV (gp120) camelid nanobody (J3-VHH) purified from culture supernatant, when secretion of protein was driven by an inducible system (SEQ ID NO: 2) was compared to a system using an uncontrolled, constitutive slpA. Cells (in this case, L. gasseri) without an expression cassette (negative control with no protein expected), an aTc-inducible expression cassette encoding J3-VHH secretion, and an equivalent, but constitutive expression cassette, were grown in culture to an optical density of 0.4 (the start of the exponential growth phase, during which time cellular protein production capacity is maximal), and split into two equal volumes—500 ng/mL of aTc was added to one, while the other received no aTc (as an internal negative control to verify functional induction).

[2] = tested on: TetR regulon paired with slpA-tetO variant 2; assay: aTc induction of fluorescent reporter, TetR regulon (L. plantarum promoter) paired with slpA-tetO variant 2; details: L. rhamnosus GG; 0.3125-10 ng/mL aTc; early exponential, mid-exponential and stationary phase; FIG. 1
Description: To evaluate the functionality of the aTc induction system described herein in lactic acid bacteria, the TetR regulon described herein is driven by a L. plantarum promoter paired with slpA-tetO variant 2 (current SEQ IDs 1 and 2), into L. rhamnosus GG via electroporation with a high copy plasmid. Sequence verified colonies, as well as colonies harboring a negative control plasmid with no fluorescence reporter, were then picked in triplicate, and used to inoculate liquid cultures that were grown overnight. These overnight cultures were then sub-cultured 1/100 into fresh media, in duplicate—one culture containing 10 ng/mL aTc, the other containing no inducing agent. The culture with inducing agent, was then serially diluted by 50%, 5 times (yielding cultures with 5, 2.5, 1.25, 0.625, and 0.3125 ng/mL of aTc, in addition to the original 10 ng/mL culture). These cultures were then grown to an optical density of 0.2 (to capture lag phase behavior), 0.6 (log phase), and 1.0 (stationary phase), as measured by an optical cell density meter. At each optical density, the fluorescence of all cultures and replicates were measured in absolute units in a fluorimeter. Relative fluorescence units were then computed as a fold change value over the measured fluorescence of the negative control cell cultures that were known to not express fluorescence protein.

L. crispatus = assay: susceptibility of Lactobacillus strains to tetracycline (growth inhibition)
L. jensenii = assay: as above
Description: (§1) An expression system that is inducible by tetracycline in Lactobacilli is described as follows. […] A BLAST analysis of the TetR protein sequence as well as the TetA tetracycline efflux pump that drives resistance was performed, across all available Lactobacillus proteomes and potential homologs in L. lactis, and L. plantarum were identified, because they carry a transferrable plasmid harboring tetM and tetS genes.

L. rhamnosus GG [3] = assay: as above
Description: as §1

L. gasseri = assay: as above
[4] = relative expression strength of promoters by fluorescence (FIG. 12)
L. rhamnosus GG [5] = assay: leakage and induction of aTc-inducible slpA promoter variant (FIG. 16)
Source text: An exemplary aTc-inducible slpA promoter variant is provided in SEQ ID NO:15 which includes the alterations above resulting in a combined, maximally repressive variant. In one embodiment, a promoter sequence has at least 85% homology, at least 90% homology, at least 95% homology, at least 97% homology, at least 98% homology or at least 99% homology to SEQ ID NO:15. All of the described alterations work in concert to achieve an inducible system that has essentially undetectable levels of leakage in all phases of growth.

[6] = tested on: TetR regulon paired with slpA-tetO variant 2; assay: aTc induction of fluorescent reporter in L. gasseri; details: similar experimental conditions, FIG. 15
L. rhamnosus GG [7] = assay: promoter variants driving fluorescent reporter in plasmid with no TetR, L. rhamnosus GG
Description: FIG. 11 depicts minimum free energy mRNA structural folding predictions. Each of these variants was then tested in a plasmid with no TetR (meaning the inserted promoters are not repressed, and should be constitutively active), driving a fluorescent reporter. […] Subsequently, this test was replicated in L. rhamnosus GG. […] Therefore, only variant 2 was selected for testing in the presence of TetR. […] See McCracken et al. J Bacteriol 181(20):6569-6572 (1999).

Molecule: Cc1c2c(c(O)c3c(O)cccc13)C(=O)[C@]1(O)C(O)=C(C(N)=O)C(=O)[C@@H](N(C)C)[C@@H]1C2 [aTc, anhydrous tetracycline]
- secretion of J3-VHH protein into the supernatant [1]: secreted any protein into the supernatant
- repression and expression of a fluorescent protein in the absence and presence of aTc [2]: reliable repression and expression of a fluorescent protein

Molecule: CN(C)[C@@H]1C(O)=C(C(N)=O)C(=O)[C@@]2(O)C(O)=C3C(=O)c4c(O)cccc4[C@@](C)(O)[C@H]3C[C@@H]12 [tetracycline]
- tetracycline concentration at which growth is inhibited (L. crispatus): ≤ 2 mg/mL
- tetracycline concentration at which growth is inhibited (L. jensenii): ≤ 2 mg/mL
- tetracycline concentration at which growth is inhibited (L. rhamnosus GG [3]): ≤ 2 mg/mL
- tetracycline concentration at which growth is inhibited (L. gasseri): ≤ 2 mg/mL

B1: promoter for the ribosomal RNA 3-a from L. plantarum: L. plantarum ribosomal RNA promoter 3-a, used to drive TetR (SEQ ID NO: 1) (nucleic acid)
DNA: TTATAAAAAGATGTTGACAGCTTGTTCTGATGATGATAAACTTTAATAGTTGCGAGAGAAAGAGGAGAAATACTAGATGATGTCTAGATTAGATAAAAGTAAAGTGATTAACAGCGCATTAGAGCTGCTTAATGAGGTCGGAATCGAAGGTTTAACAACCCGTAAACTCGCCCAGAAGCTAGGTGTAGAGCAGCCTACATTGTATTGGCATGTAAAAAATAAGCGGGCTTTGCTCGACGCCTTAGCCATTGAGATGTTAGATAGGCACCATACTCACTTTTGCCCTTTAGAAGGGGAAAGCTGGCAAGATTTTTTACGTAATAACGCTAAAAGTTTTAGATGTGCTTTACTAAGTCATCGCGATGGAGCAAAAGTACATTTAGGTACACGGCCTACAGAAAAACAGTATGAAACTCTCGAAAATCAATTAGCCTTTTTATGCCAACAAGGTTTTTCACTAGAGAATGCATTATATGCACTCAGCGCTGTGGGGCATTTTACTTTAGGTTGCGTATTGGAAGATCAAGAGCATCAAGTCGCTAAAGAAGAAAGGGAAACACCTACTACTGATAGTATGCCGCCATTATTACGACAAGCTATCGAATTATTTGATCACCAAGGTGCAGAGCCAGCCTTCTTATTCGGCCTTGAATTGATCATATGCGGATTAGAAAAACAACTTAAATGTGAAAGTGGGTCTTAA
- expression strength relative to slpA [4]: 5 fold weaker than that of slpA

B2: SEQ ID NO:15: aTc-inducible slpA promoter variant combining all alterations, maximally repressive (nucleic acid)
DNA: TGCTTGTGGGGGTAAGCGGTAGGTGAAATATTACAAATAGTATTTTTCGGTCATTTTAACTTGCTATTTCTTGAAGAGGTTAGTACAATATGAATCGTGGTCCCTATCAGTGATAGAGATTGACATCCCTATCAGTGATAGAGATATTCTTCAGCAAGACTACTACCTCATGAGAGTTATAGACTCATGGATCTTGCTTTGAAGGGTTTTGTACATTATAGGCTCCTATCACATGCTGAACCTATGGCCTATTACATTTTTTTATATTTCAAGGAGGAAAAGACCAC
- reduction in maximum inducible expression (L. rhamnosus GG [5]; FIG. 16): ~10 ×
- basal expression in the absence of aTc (L. rhamnosus GG [5]; stationary phase for 0, 2.5, 7.5 and 17.5 hours): no basal expression was detected

B3: TetR-ClpC-slpA: hybrid regulon: L. fermentum BR11 ClpC promoter fused to slpA 5' untranslated region driving TetR (nucleic acid)
DNA: CTTAAAATATAGTCATAGAATTAGGGCGTCGGTTTTAAAAGTGTGGTAAAATAATGGTCAAGATTAGTGGTAAGTAATAGGACGTGCTTCAGGCGTGTTGCCTGTACGCATGCTGATTCTTCAGCAAGACTACTACCTCATGAGAGTTATAGACTCATGGTATAGGCTCCTATCACATGCTGAACCTATGGCCTATTACATTTTTTTATATTTCAAGGAGGAAAAGACCACATGATGTCACGCTTGGATAAATCAAAAGTTATTAATTCAGCATTGGAATTGTTGAATGAAGTTGGCATTGAAGGCTTGACCACCCGCAAATTGGCACAAAAATTGGGCGTTGAACAACCAACCTTGTATTGGCATGTTAAAAATAAACGCGCATTGTTGGATGCATTGGCAATTGAAATGTTGGATCGCCATCATACCCATTTTTGCCCATTGGAAGGCGAATCATGGCAAGATTTTTTGCGCAATAATGCAAAATCATTTCGCTGCGCATTGTTGTCACATCGCGATGGCGCAAAAGTTCATTTGGGCACCCGCCCAACCGAAAAACAATATGAAACCTTGGAAAATCAATTGGCATTTTTGTGCCAACAAGGCTTTTCATTGGAAAATGCATTGTATGCATTGTCAGCAGTTGGCCATTTTACCTTGGGCTGCGTTTTGGAAGATCAAGAACATCAAGTTGCAAAAGAAGAACGCGAAACCCCAACCACCGATTCAATGCCACCATTGTTGCGCCAAGCAATTGAATTGTTTGATCATCAAGGCGCAGAACCAGCATTTTTGTTTGGCTTGGAATTGATTATTTGCGGCTTGGAAAAACAATTGAAATGCGAATCAGGCTCATAA
- function of hybrid promoter driving TetR [6]: functional

B4: Variant 2: slpA promoter with two tetO boxes after the transcriptional start site (nucleic acid)
DNA: TGCTTGTGGGGGTAAGCGGTAGGTGAAATATTACAAATAGTATTTTTCGGTCATTTTAACTTGCTATTTCTTGAAGAGGTTAGTACAATATGAATCGTGGCCCTATCAGTGATAGAGATCAGGCGCCCTATCAGTGATAGAGATGATTCTTCAGCAAGACTACTACCTCATGAGAGTTATAGACTCATGGATCTTGCTTTGAAGGGTTTTGTACATTATAGGCTCCTATCACATGCTGAACCTATGGCCTATTACATTTTTTTATATTTCAAGGAGGAAAAGACCAC
- expression versus wild-type promoter (L. rhamnosus GG [7]): 3 fold-less than the wild-type promoter
